From patent US20260109721A1, “IONIZABLE CATIONIC LIPIDS INCORPORATING SILICON: SYNTHESIS AND LNP FORMULATION” (priority 2023, published 2026)

Test system: HepG2 cell line
Assay: In vitro toxicity study on HepG2 cell line (resazurin, viability and IC50)
Format: cell-based, human
Settings: resazurin; for Viability (%) at different lipid concentrations, mean: HepG2 cells, 48 h post-treatment, relative to ethanol vehicle controls; for IC50: Homo sapiens, lipid toxicity, HepG2, 48 h post-treatment, 6.25-800 μM, read-out: IC50 value, μM (on HepG2 cell)
Description: The synthesized lipids were tested in term of in vitro transfection efficacy and toxicity on HeLa cells. In order to perform the mentioned biological tests, appropriate LNPs had to be formulated from the synthesized lipids. The formulation technique was different in Method A and B. The particle size, polydispersity index (PDI) and zeta potential of resulting LNPs were determined by means of Dynamic Light Scattering technique (DLS). Prior to biological testing the encapsulation efficiency (EE) of the loaded LNPs was determined by using RiboGreen RNA assay. In case of Method A Luc mRNA while in case of Method B GFP mRNA was transfected into the cells. In parallel with the transfection experiments, toxicity of the investigated LNPs was determined, in case of Method A resazurin assay while in case of Method B MTT assay was used. Additionally, the toxicity of the lipids was investigated on HepG2 cells and IC50 values were determined.
HepG2 cell line (human hepatocellular carcinoma) were maintained in DMEM medium supplemented with 10% FBS. Cell toxicity measurements were carried out in 384-well microtiter plates with 1000 cells seeded in each well. Test measurements were carried out in triplicate, and control measurements in quadruplicate. After an overnight incubation, the cells were treated with an increasing concentration of the test compounds (6.25, 12.5, 25, 50, 100, 200, 400, 800 μM). […] 48 h post-treatment, following visual inspection under an inverted microscope, cell viability was measured by resazurin assay. Viability of treated cells was calculated relative to that of ethanol vehicle controls. Concentration response curves (CRCs) were obtained and corresponding IC50 values were calculated where applicable and are shown in Table 9.
Resazurin reagent (Sigma-Aldrich) was dissolved in PBS (pH 7.4) at 0.15 mg/ml concentration, 0.22 μm filtered and aliquoted at −20° C., 10 μl resazurin stock solution was added to wells. After 5 hours incubation at 37° C. under 5% CO2 fluorescence (530 nm excitation/580 nm emission) was recorded on a multimode microplate reader.

| Compound | Viability (%) at different lipid concentrations, mean (6.25 μM lipid) [%] | Viability (%) at different lipid concentrations, mean (12.5 μM lipid) [%] | Viability (%) at different lipid concentrations, mean (25 μM lipid) [%] | Viability (%) at different lipid concentrations, mean (50 μM lipid) [%] | Viability (%) at different lipid concentrations, mean (100 μM lipid) [%] | Viability (%) at different lipid concentrations, mean (200 μM lipid) [%] | Viability (%) at different lipid concentrations, mean (400 μM lipid) [%] | Viability (%) at different lipid concentrations, mean (800 μM lipid) [%] | IC50 [µM] |
| --- | --- | --- | --- | --- | --- | --- | --- | --- | --- |
| CCCCC/C=C\C/C=C\CCCCCCCCOC(CCCCCCC/C=C\C/C=C\CCCCC)O[Si](C)(C)OCCCCCCN(CCCO)CCCO (stereo not shown) [Example 61, (24Z,27Z)-14-((8Z,11Z)-heptadeca-8,11-dien-1-yl)-4-(3-hydroxypropyl)-12,12-dimethyl-11,13,15-trioxa-4-aza-12-silatritriaconta-24,27-dien-1-ol] | 100.6 | 110.1 | 116.5 | 106.3 | 54.4 | 14.9 | −0.5 | −1.4 | 102 |
| CCCCC/C=C\C/C=C\CCCCCCCCOC(CCCCCCC/C=C\C/C=C\CCCCC)O[Si](C)(C)OCCCCCCN1CCCC1CO (stereo not shown) [Example 63, (1-((20Z,23Z)-10-((8Z,11Z)-heptadeca-8,11-dien-1-yl)-8,8-dimethyl-7,9,11-trioxa-8-silanonacosa-20,23-dien-1-yl)pyrrolidin-2-yl)methanol] | 99.3 | 96.4 | 96.6 | 98.3 | 94.8 | 91.6 | 85.3 | 74.5 | > 800 |
| CCCCC/C=C\C/C=C\CCCCCCCCOC(CCCCCCC/C=C\C/C=C\CCCCC)O[Si](C)(C)OCCCCCCN1CCC(CO)CC1 (stereo not shown) [Example 65, (1-((20Z,23Z)-10-((8Z,11Z)-heptadeca-8,11-dien-1-yl)-8,8-dimethyl-7,9,11-trioxa-8-silanonacosa-20,23-dien-1-yl)piperidin-4-yl)methanol] | – | – | – | – | – | – | – | – | 742 |
| CCCCCCCCO[Si](C)(C)O[Si](C)(C)OC(CCCCCCC)OCCCCCCN(C)CCN(C)CCN(C)CCCCCCOC(CCCCCCC)O[Si](C)(C)O[Si](C)(C)OCCCCCCCC (stereo not shown) [Example 83, N^1-(11-heptyl-3,13,13,15,15-pentamethyl-10,12,14,16-tetraoxa-3-aza-13,15-disilatetracosyl)-N^1,N^2-dimethyl-N^2-(6-((1-((1,1,3,3-tetramethyl-3-(octyloxy)disiloxaneyl)oxy)octyl)oxy)hexyl)ethane-1,2-diamine] | 100.51 | 98.95 | 100.30 | 101.93 | 83.41 | 41.91 | 2.25 | −1.25 | 176 |
